Assay results from US7282595B2, “Antitumor benzoylsulfonamides” (Eli Lilly and Company, priority 2003, dated 2007).

System: Human HCT116 colon carcinoma cells
Assay: HCT116 Colon Carcinoma Cell Growth Inhibition
Assay type: cell-based
Details: WST-1 growth fraction
Experimental: HCT116 Colon Carcinoma Cell Growth Inhibition
Human HCT116 colon carcinoma cells were grown monolayer culture in RPMI 1640 medium supplemented with 10% fetal bovine serum and 1% penicillin-streptomycin (GibcoBRL, Grand Island, N.Y.). HCT116 cells in exponential growth phase were exposed to various concentrations of the test compounds at 37° C. for 72 hr in 5% carbon dioxide/air. After exposure to the agent, the cells were washed with 0.9% phosphate buffered saline. Growth inhibition was determined using WST-1 cell proliferation reagent as described above. The results are expressed as the growth fraction of treated cells compared with control cultures. Representative compounds of the present invention were tested for efficacy against the human colon HCT116 tumor cells.

[1] = Homo sapiens, HCT-116, 72 hr exposure

| Molecule | IC50 [1] [µM] | IC50 (72 hr exposure) [µM] |
| --- | --- | --- |
| Cc1cc(Br)ccc1C(=O)NS(=O)(=O)c1ccc2c(c1)OCO2 [Example 4, N-[4-bromo-2-methylbenzoyl]-benzo[1,3]dioxole-5-sulfonamide] | 7.5 |  |
| Cc1ccc(C(=O)NS(=O)(=O)c2ccc3c(c2)OCO3)c(Br)c1 [Example 5, N-[4-methyl-2-bromobenzoyl]-benzo[1,3]dioxole-5-sulfonamide] | 8.5 |  |
| O=C(NS(=O)(=O)c1ccc2c(c1)OCO2)c1ccc(Br)cc1Br [Example 6, N-[2,4-dibromobenzoyl]-benzo[1,3]dioxole-5-sulfonamide] | 4.6 |  |
| O=C(NS(=O)(=O)c1ccc2ncsc2c1)c1ccc(Cl)cc1Cl [Example 18, N-[2,4-dichlorobenzoyl]-benzothiazole-6-sulfonamide] | 14.2 |  |
| O=C(NS(=O)(=O)c1ccc2c(c1)OCO2)c1ccc(Cl)cc1Cl [Example 25, N-[2,4-dichlorobenzoyl]-benzo[1,3]dioxole-5-sulfonamide] | 2.1 |  |
| CN1CCc2ccc(S(=O)(=O)NC(=O)c3ccc(Cl)cc3Cl)cc21 [Example 26, N-[2,4-dichlorobenzoyl]-1-methyl-2,3-dihydro-1H-indole-6-sulfonamide] | 10 |  |
| O=C(NS(=O)(=O)c1ccc2c(c1)CC=C2)c1ccc(Cl)cc1Cl [Example 27, N-[2,4-dichlorobenzoyl]-3H-indene-5-sulfonamide] | 3.2 |  |
| Cn1c(S(=O)(=O)NC(=O)c2ccc(Cl)cc2Cl)cc2ccccc21 [Example 31, N-[2,4-dichlorobenzoyl]-1-methyl-indole-2-sulfonamide] | 4.6 |  |
| N-[2,4-dichlorobenzoyl]-tetrahydrobenzofuran-5-sulfonamide [Example 24] |  | 40 |

Second part, the molecule after the results:

| IC50 [1] [µM] | IC50 (72 hr exposure) [µM] | Molecule |
| --- | --- | --- |
| 9.6 |  | Cc1cc(Cl)ccc1C(=O)NS(=O)(=O)c1ccc2c(c1)CCO2 [Example 1, N-[4-chloro-2-methylbenzoyl]-2,3-dihydrobenzofuran-5-sulfonamide] |
| 3.9 |  | O=C(NS(=O)(=O)c1ccc2c(c1)OCO2)c1ccc(Cl)cc1Br [Example 2, N-[4-chloro-2-bromobenzoyl]-benzo[1,3]dioxole-5-sulfonamide] |
| 6.4 |  | Cc1cc(Cl)ccc1C(=O)NS(=O)(=O)c1ccc2c(c1)OCO2 [Example 3, N-[4-chloro-2-methylbenzoyl]-benzo[1,3]dioxole-5-sulfonamide] |
| 13.9 |  | O=C(NS(=O)(=O)c1ccc2c(c1)OCO2)c1ccc(Br)cc1Cl [Example 7, N-[4-bromo-2-chlorobenzoyl]-benzo[1,3]dioxole-5-sulfonamide] |
| 21.8 |  | O=C(NS(=O)(=O)c1cc2ccccc2s1)c1ccc(Cl)cc1Cl [Example 16, N-[2,4-dichlorobenzoyl]-benzo[b]thiophene-2-sulfonamide] |
| 19.8 |  | O=C(NS(=O)(=O)c1cc2ccccc2o1)c1ccc(Cl)cc1Cl [Example 17, N-[2,4-dichlorobenzoyl]-benzofuran-2-sulfonamide] |
|  | 4.1 | O=C(NS(=O)(=O)c1ccc2c(c1)OCCO2)c1ccc(Cl)cc1Cl [Example 23, N-[2,4-dichlorobenzoyl]-2,3-dihydrobenzo[1,4]dioxane-6-sulfonamide] |
| 3.2 |  | O=C(NS(=O)(=O)c1ccc2c(c1)CCC2)c1ccc(Cl)cc1Cl [Example 28, N-[2,4-dichlorobenzoyl]-indane-5-sulfonamide] |
| 26.2 |  | O=C(NS(=O)(=O)c1ccc2c(c1)CCC2=O)c1ccc(Cl)cc1Cl [Example 29, N-[2,4-dichlorobenzoyl]-1-oxo-indane-5-sulfonamide] |
